Test results reported in US20040005648A1, “PYK2 related products and methods” (Sugen, Inc., priority 1994, published 2004).

Test system: PYK-2
Test: Tyrosine phosphorylation of PYK-2 in NIH3T3 cell lines that overexpress PYK-2
Type: cell-based, mouse
Details: NIH3T3 cells overexpressing PYK-2 / PYK-2-HA; TPA 6 μM, 15 min at 37° C.
Protocol: Stable cell lines of NIH3T3 that overexpress PYK2 were established by contransfection of PYK2 subcloned into pLSV together with pSV2neo utilizing lipofectamine reagent (GIBCO BRL). Following transfection the cells were grown in Dulbecco's modified Eagle's medium containing 10% fetal bovine serum and 1 mg/ml G418. Transient transfections into 293 cells were performed by using the calcium phosphate technique (*).
The PYK-2 cDNA cloned in PLSV was cotransfected with pSV2neo into PC12 cells and NIH3T3 in order to establish stable cell lines. G418 resistant colonies were screened by immunoprecipitating and immunoblotting.
NIH3T3 cell lines were established that overexpress the PYK-2 and the PYK-2-HA protein. […] The level of phosphorylation is not so high.

## CCCCCCCCCCCCCC(=O)O[C@@H]1[C@@H](C)[C@@]2(O)[C@@H](C=C(CO)C[C@]3(O)C(=O)C(C)=C[C@@H]23)[C@@H]2C(C)(C)[C@]12OC(C)=O [PMA, phorbol 12-myristate 13-acetate]
  tyrosine phosphorylation of PYK-2 in response to the agent: stronger effect
